# According to US20050085463A1 (priority 2003, published 2005):
# Experiments:
# [1] = target: T1, M4 muscarinic receptor (Homo sapiens, UniProt P08173); assay: R-SAT agonist assay; assay type: cell-based; design: expressed in transfected cells; host or cells: NIH/3T3; settings: relative to carbachol, No response/nr = no agonist activity up to 10 μM
# T1 sequence (P08173 1-479): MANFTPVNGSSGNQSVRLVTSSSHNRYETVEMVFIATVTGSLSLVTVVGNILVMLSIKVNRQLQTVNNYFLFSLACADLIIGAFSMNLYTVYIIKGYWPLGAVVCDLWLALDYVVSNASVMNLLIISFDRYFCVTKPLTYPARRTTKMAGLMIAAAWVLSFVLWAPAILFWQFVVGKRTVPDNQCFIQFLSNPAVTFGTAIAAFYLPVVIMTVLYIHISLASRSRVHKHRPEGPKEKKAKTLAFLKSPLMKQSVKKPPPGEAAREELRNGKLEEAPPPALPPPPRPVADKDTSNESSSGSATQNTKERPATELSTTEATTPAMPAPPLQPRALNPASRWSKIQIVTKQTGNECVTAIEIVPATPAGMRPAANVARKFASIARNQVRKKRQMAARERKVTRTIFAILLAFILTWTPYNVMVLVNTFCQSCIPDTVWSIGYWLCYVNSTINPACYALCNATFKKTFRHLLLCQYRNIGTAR
# [2] = target: T2, M2 muscarinic receptor (Homo sapiens, UniProt P08172); assay: R-SAT agonist assay; settings: R-SAT; relative to carbachol; No response/nr = no agonist activity up to 10 μM
# T2 sequence (P08172 1-466): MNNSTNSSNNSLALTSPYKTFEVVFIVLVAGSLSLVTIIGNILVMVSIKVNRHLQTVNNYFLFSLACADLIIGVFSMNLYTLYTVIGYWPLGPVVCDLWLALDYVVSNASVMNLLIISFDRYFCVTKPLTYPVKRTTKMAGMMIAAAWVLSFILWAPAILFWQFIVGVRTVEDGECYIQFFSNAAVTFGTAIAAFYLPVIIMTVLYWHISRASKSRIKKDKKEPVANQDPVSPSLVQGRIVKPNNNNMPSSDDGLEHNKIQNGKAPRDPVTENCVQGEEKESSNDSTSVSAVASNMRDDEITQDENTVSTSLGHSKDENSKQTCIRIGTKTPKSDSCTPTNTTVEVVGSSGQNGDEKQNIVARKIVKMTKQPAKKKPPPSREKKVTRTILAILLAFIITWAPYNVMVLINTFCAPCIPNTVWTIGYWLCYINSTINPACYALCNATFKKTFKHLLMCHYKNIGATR
# [3] = target: T3, M5 muscarinic receptor (Homo sapiens, UniProt P08912); assay: R-SAT agonist assay; assay type: cell-based; design: expressed in transfected cells; host or cells: NIH/3T3; settings: R-SAT; relative to carbachol; No response/nr = no agonist activity up to 10 μM
# T3 sequence (P08912 1-532): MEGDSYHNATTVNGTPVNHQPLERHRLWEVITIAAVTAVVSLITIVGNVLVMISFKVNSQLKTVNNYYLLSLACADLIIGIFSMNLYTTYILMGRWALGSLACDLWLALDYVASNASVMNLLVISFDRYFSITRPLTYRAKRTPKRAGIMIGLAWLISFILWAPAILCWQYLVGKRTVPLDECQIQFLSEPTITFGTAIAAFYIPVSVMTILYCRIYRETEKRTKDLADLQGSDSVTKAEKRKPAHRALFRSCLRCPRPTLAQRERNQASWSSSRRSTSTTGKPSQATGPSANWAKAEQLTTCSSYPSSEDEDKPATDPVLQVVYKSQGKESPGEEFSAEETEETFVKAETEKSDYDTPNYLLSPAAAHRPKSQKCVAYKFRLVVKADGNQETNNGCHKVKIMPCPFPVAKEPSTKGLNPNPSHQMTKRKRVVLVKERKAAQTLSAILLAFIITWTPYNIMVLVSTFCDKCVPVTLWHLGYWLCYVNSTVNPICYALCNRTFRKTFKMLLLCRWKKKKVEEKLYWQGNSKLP
# [4] = target: T4, M1 muscarinic receptor (Homo sapiens, UniProt P11229); assay: R-SAT agonist assay; assay type: cell-based; design: expressed in transfected cells; host or cells: NIH/3T3
# T4 sequence (P11229 1-460): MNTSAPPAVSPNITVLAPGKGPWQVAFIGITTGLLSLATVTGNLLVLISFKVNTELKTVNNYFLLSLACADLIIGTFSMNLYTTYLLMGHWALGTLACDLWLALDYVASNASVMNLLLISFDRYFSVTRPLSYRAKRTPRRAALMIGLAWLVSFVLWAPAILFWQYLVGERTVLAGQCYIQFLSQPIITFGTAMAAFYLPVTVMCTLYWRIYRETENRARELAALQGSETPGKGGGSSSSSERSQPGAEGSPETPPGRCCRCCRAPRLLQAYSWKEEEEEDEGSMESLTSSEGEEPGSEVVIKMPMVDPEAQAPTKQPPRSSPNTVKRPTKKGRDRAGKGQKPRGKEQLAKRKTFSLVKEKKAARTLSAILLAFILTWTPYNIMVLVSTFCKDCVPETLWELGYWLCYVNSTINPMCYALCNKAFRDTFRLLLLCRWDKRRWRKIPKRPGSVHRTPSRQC
# [5] = target: M3 muscarinic receptor (Homo sapiens, UniProt P20309); assay: R-SAT agonist assay; settings: R-SAT; relative to carbachol; No response/nr = no agonist activity up to 10 μM
# Sequence of M3 muscarinic receptor (P20309 whole entry): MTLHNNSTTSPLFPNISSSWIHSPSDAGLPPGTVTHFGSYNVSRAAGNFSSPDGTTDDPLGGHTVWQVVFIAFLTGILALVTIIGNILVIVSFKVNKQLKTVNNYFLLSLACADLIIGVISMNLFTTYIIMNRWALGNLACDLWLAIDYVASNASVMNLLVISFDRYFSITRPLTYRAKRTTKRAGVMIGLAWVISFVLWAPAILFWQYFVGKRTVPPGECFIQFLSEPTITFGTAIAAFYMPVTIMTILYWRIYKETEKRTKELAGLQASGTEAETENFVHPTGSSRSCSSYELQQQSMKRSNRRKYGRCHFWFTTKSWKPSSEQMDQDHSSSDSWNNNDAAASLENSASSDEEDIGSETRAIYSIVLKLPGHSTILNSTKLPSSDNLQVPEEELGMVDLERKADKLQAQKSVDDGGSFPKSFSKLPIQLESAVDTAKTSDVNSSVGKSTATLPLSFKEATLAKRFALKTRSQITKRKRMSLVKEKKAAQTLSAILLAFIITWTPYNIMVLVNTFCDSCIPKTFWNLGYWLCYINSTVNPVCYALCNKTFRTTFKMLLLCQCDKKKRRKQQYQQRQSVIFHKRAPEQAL
# [6] = system: MK-801-induced hyperactivity; assay: Reversal of MK-801-induced hyperactivity; assay type: in vivo, Non-Swiss Albino (NSA) mice
# Excerpt: Clinically effective antipsychotic drugs can block the behavioral effects of non-competitive N-methyl-D-aspartate […], such as MK-801. […]. […]
# [7] = system: apomorphine-induced climbing; assay: Reversal of apomorphine-induced climbing; settings: s.c.
# [8] = system: amphetamine-induced hyperactivity; assay: Reversal of amphetamine-induced hyperactivity; assay type: in vivo, Non-Swiss Albino (NSA) mice; settings: p.o.
# [9] = Serum levels during clozapine treatment of schizophrenic patients; assay type: in vivo, human
# Procedure: The analysis was adjusted for baseline level of symptom severity, age, and dose, since dose was not fixed. […] Regarding co-treatment with anticholinergic agents, only two subjects in this sample were treated with benztropine. […] Lastly, ten of the patients in this study were treated with benzodiazepines at the time the levels of clozapine and NDMC were measured.
# Patients were classified as treatment resistant or not by standard criteria (Kane et al 1988), and clinical ratings and neuropsychological test scores were obtained by trained raters who were blinded to plasma drug levels.
# [10] = target: human monoaminergic receptors; assay: R-SAT functional profiling; assay type: cell-based; settings: data not shown
# Excerpt: It has long been appreciated that antagonism of central muscarinic receptors can attenuate the EPS induced by antipsychotics (Miller and Hiley 1974). […] .
# [11] = clozapine-treated schizophrenics
# [12] = clozapine-treated treatment resistant schizophrenics
smiles,measurement,setting,value
Cc1cc2c(s1)Nc1ccccc1N=C2N1CCNCC1 [N-desmethylolanzapine],M4 Efficacy,[1],No response
same,M2 Efficacy,[2],No response
same,M5 Efficacy,[3],No response
same,M1 Efficacy,"[4]; R-SAT, relative to carbachol, No response/nr = no agonist activity up to 10 μM",No response
same,M3 Efficacy,[5],No response
CCCCCCOc1nsnc1C1=CCCN(C)C1 [Xanomeline],M4 Efficacy,[1],116 ± 9%
same,M5 Efficacy,[3],86 ± 12%
"CN1CCN(C2=Nc3cc(Cl)ccc3Nc3ccccc32)CC1 [Clozapine, 8-chloro-11-(4-methyl-1-piperazinyl)-5H-dibenzo [b,e][1,4] diazepine, reference compound]","minimal effective dose, attenuation of MK-801-induced hyperactivity",[6]; p.o.,3 mg/kg
same,"minimal effective dose, attenuation of MK-801-induced hyperactivity",[6]; s.c.,1 mg/kg
same,"minimal effective dose, reduction of apomorphine-induced climbing",[7],10 mg/kg
same,"minimal effective dose, reduction of amphetamine-induced hyperactivity",[8],3 mg/kg
same,M2 Efficacy,[2],65 ± 8%
same,"Serum level, All Subjects at 6 Months (92)",[9]; [11],365 ± 285 ng/mL
same,"Serum level, All Subjects at 6 Weeks (86)",[9]; [11],287 ± 190 ng/mL
same,"Serum level, Non-Responders (25)",[9]; [12],268 ± 207 ng/mL
same,"Serum level, Responders (26)",[9]; [12],453 ± 328 ng/mL
same,"Serum level, All TR Subjects (59)","[9]; clozapine-treated treatment resistant schizophrenics, drawn 12 hours after last clozapine dose",393 ± 301 ng/mL
same,M5 Efficacy,[3],No response and nr
O=C(CCCN1CCC(O)(c2ccc(Cl)cc2)CC1)c1ccc(F)cc1 [Haloperidol],dose that completely attenuated apomorphine-induced climbing,[7],0.1 mg/kg
"Cc1ccc(C2(O)CCN(CCCC(=O)c3ccc(F)cc3)CC2)cc1 [Moperone, reference compound]",EC50,"[4]; R-SAT functional agonist screen of 462-compound library, read-out: EC50 at human M1 receptor",> 1000 nM
Cc1cc2c(s1)Nc1ccccc1N=C2N1CCN(C)CC1 [Olanzapine],M4 Efficacy,[1],No response
same,M2 Efficacy,[2],No response
same,M5 Efficacy,[3],No response
C[N+](C)(C)CCOC(N)=O [Carbachol],M4 Efficacy,[1],96 ± 3%
same,M5 Efficacy,[3],105 ± 3%
C[N+]1([O-])CCN(C2=Nc3cc(Cl)ccc3Nc3ccccc32)CC1 [clozapine-N-oxide],"pKi, functional activity at human monoaminergic receptors",[10],< 6.0
